The results in this text go back to publication PMC10943827, “Engineering Saccharomyces cerevisiae for targeted hydrolysis and fermentation of glucuronoxylan through CRISPR/Cas9 genome editing” (Microbial Cell Factories, 2024).

The target in this assay is T1, XylA (Aspergillus oryzae, UniProt Q2UR38).
T1 construct: gene xlnD; codon-optimized gene, N-terminal S. cerevisiae SED1 secretory signal peptide, expressed from X2 locus of S. cerevisiae CEN.PK XXX; secretome, intact cells and lysate assayed
T1 sequence (Q2UR38 21-798): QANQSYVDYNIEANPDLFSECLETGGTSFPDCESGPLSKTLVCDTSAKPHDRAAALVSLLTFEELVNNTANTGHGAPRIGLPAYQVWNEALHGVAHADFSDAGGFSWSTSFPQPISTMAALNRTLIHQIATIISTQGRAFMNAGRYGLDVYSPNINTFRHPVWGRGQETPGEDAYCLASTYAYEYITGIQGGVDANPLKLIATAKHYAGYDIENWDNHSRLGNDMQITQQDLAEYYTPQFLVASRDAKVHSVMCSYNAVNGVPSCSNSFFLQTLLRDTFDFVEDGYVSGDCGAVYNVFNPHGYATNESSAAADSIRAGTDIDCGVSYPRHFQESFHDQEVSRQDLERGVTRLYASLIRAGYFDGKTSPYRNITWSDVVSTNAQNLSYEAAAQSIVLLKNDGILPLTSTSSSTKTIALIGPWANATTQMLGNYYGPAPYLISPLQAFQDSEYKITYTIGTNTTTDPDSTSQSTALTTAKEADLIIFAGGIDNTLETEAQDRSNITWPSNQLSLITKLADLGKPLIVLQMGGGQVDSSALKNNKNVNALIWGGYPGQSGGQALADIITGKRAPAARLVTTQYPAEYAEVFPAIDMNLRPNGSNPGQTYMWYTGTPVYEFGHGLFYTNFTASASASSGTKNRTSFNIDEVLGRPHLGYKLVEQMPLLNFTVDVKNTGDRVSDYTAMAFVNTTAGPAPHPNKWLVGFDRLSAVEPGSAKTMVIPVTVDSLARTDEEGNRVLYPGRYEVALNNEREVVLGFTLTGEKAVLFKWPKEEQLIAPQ
Kind of assay: p-nitrophenol release at […] nm, secretome / cell / intracellular fractions of XylA strain versus parent XXX strain. It is filed as cell-based. The note with it: 5 mM substrate, 20 mM sodium phosphate pH 7, 30 °C, 30 min.

In the case of `O=[N+]([O-])c1ccc(O[C@@H]2OC[C@@H](O)[C@H](O)[C@H]2O)cc1` [p-nitrophenyl-β-D-xylopyranoside], the “p-nitrophenol release at 405 nm, secretome / cell / intracellular fractions of X” value is listed as “subcellular β-xylosidase activity quantified using p-nitrophenyl-β-D-xylopyranoside”.
